Test results taken from ChEMBL document CHEMBL5120799, “A Nrf-2 Stimulatory Hydroxylated Cannabidiol Derivative from Hemp (Cannabis sativa)” (J Nat Prod, 2022).
Active and inactive are the calls of the source. No cut-off for these calls is given here.

Experiments:
[1] = molecular target: T1, Nuclear factor erythroid 2-related factor 2 (Homo sapiens) (UniProt Q16236); assay: Activation of Nrf2 transcriptional activity in human HaCaT-ARE-Luc cells at 1 uM incubated for 6 hrs by luciferase activity assay relative to control; type: cell-based
T1 sequence (whole entry): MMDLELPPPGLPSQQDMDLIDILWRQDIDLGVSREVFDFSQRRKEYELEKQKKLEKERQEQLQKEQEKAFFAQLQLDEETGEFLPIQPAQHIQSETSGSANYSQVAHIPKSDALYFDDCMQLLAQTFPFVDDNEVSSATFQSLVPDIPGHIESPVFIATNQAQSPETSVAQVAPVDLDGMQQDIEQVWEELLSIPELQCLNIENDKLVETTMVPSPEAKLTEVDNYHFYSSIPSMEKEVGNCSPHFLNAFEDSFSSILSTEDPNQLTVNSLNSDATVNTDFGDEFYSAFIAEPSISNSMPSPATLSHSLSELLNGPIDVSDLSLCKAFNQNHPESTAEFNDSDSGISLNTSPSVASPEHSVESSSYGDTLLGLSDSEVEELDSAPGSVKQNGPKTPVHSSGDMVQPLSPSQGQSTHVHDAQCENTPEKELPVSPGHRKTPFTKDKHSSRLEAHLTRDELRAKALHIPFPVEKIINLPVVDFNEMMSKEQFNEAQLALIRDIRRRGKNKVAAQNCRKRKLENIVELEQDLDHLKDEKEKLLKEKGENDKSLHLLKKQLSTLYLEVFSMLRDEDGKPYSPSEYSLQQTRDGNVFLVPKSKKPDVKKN

[2] = molecular target: T1, Nuclear factor erythroid 2-related factor 2 (Homo sapiens); assay: Activation of Nrf2 transcriptional activity in human HaCaT-ARE-Luc cells at 10 uM incubated for 6 hrs by luciferase activity assay relative to control; type: cell-based; conditions: filed as activator
[3] = molecular target: T1, Nuclear factor erythroid 2-related factor 2 (Homo sapiens); assay: Activation of Nrf2 transcriptional activity in human HaCaT-ARE-Luc cells at 25 uM incubated for 6 hrs by luciferase activity assay relative to control; type: cell-based; conditions: filed as activator
HaCaT [4] = assay: Inhibition of TBHP-induced ROS production in human HaCaT cells assessed as reduction on intracellular ROS level at 1 to 25 uM pretreated for 30 mins followed by TBHP stimulation and measured after 3 hrs by DCFH2-DA staining analysis; type: functional, cell-based; conditions: dose 1-25 µM, time 3.5 hrs, DDE = dose-dependent effect
HaCaT [5] = assay: Inhibition of TBHP-induced ROS production in human HaCaT cells assessed as reduction on intracellular ROS level at 25 uM pretreated for 30 mins followed by TBHP stimulation and measured after 3 hrs by DCFH2-DA staining analysis; type: functional, cell-based; conditions: time 3.5 hrs
[6] = molecular target: T1, Nuclear factor erythroid 2-related factor 2 (Homo sapiens); assay: Activation of Nrf2 transcriptional activity in human HaCaT-ARE-Luc cells at 1 to 25 uM incubated for 6 hrs by luciferase activity assay; type: cell-based; conditions: filed as activator, dose 1-25 µM

Which results are given for `C=C1CC[C@@H](C(=C)C)[C@H](c2c(O)cc(CCCCC)cc2O)[C@H]1O`?
Activity [1]: 20%; Activity [2]: 144%; Activity [3]: 202%; inhibition (HaCaT [4]): Dde; inhibition (HaCaT [5]): Active

For `C=C(C)[C@@H]1CCC(C)=C[C@H]1c1c(O)cc(CCCCC)cc1O`, which Activity [6] is on record?
Its Activity is “Active”.
